ChEMBL document CHEMBL5370618, “Hypoxia-Directed and Self-Immolative Theranostic Agent: Imaging and Treatment of Cancer and Bacterial Infections” (J Med Chem, 2023)
The source made the active and inactive calls. The rule behind the calls is not given here.

Tests used:
[1] = Prodrug conversion in human serum assessed as GSH mediated drug degradation by measuring fluorescence production at 10 uM incubated for 30 mins by fluorescence spectroscopic analysis; type: ADME, cell-free; details: 0.5 h
[2] = Biodistribution in tumor of BALB/c mouse xenografted with human hypoxic A549 cells assessed as fold increase in drug uptake at 2.5 mg/kg,iv and measured after 29 hrs by fluorescence imaging analysis relative to control; type: ADME, organism-based, Neoplasm; details: in vivo
[3] = Prodrug conversion in human serum assessed as NO mediated drug degradation by measuring fluorescence production at 10 uM incubated for 30 mins by fluorescence spectroscopic analysis; type: ADME, cell-free; details: 0.5 h
[4] = Prodrug conversion in tumor of BALB/c mouse xenografted with human hypoxic A549 cells assessed as fold increase in fluorescence intensity at 2.5 mg/kg,iv and measured after 29 hrs by fluorescence imaging analysis relative to control; type: ADME, organism-based, Neoplasm; details: in vivo
Escherichia coli = assay: Antibacterial activity against Escherichia coli assessed as reduction in bacterial cell viability at 250 to 500 uM incubated for 24 hrs by CFU assay; type: functional, organism-based; details: dose 250-500 µM
[5] = Biodistribution in stomach of BALB/c mouse xenografted with human hypoxic A549 cells assessed as drug uptake at 2.5 mg/kg,iv and measured after 29 hrs by fluorescence imaging analysis; type: ADME, organism-based; details: in vivo
[6] = Prodrug conversion in human serum assessed as […] mediated drug degradation by measuring fluorescence production at 10 uM incubated for 30 mins by fluorescence spectroscopic analysis; type: ADME, cell-free; details: 0.5 h
[7] = Prodrug conversion in BALB/c mouse xenografted with human hypoxic A549 cells assessed as rhodamine release by measuring increase in fluorescence intensity in tumor at 2.5 mg/kg,iv and measured after 29 hrs by fluorescence imaging analysis; type: ADME, organism-based; details: in vivo
[8] = Prodrug conversion in Escherichia coli assessed as nitroreductase mediated drug degradation by measuring increase in fluorescence intensity at 10 uM in presence of dicoumarol by fluorescence analysis; type: ADME
[9] = Prodrug conversion in human serum assessed as serine mediated drug degradation by measuring fluorescence production at 10 uM incubated for 30 mins by fluorescence spectroscopic analysis; type: ADME, cell-free; details: 0.5 h
[10] = Prodrug conversion in Bacillus subtilis assessed as nitroreductase mediated drug degradation by measuring increase in fluorescence intensity at 10 uM in presence of dicoumarol by fluorescence analysis; type: ADME
[11] = Biodistribution in liver of BALB/c mouse xenografted with human hypoxic A549 cells assessed as drug uptake at 2.5 mg/kg,iv and measured after 29 hrs by fluorescence imaging analysis; type: ADME, organism-based; details: in vivo
[12] = Prodrug conversion in human serum assessed as H2O2 mediated drug degradation by measuring fluorescence production at 10 uM incubated for 30 mins by fluorescence spectroscopic analysis; type: ADME, cell-free; details: 0.5 h
[13] = Prodrug conversion in BALB/c mouse xenografted with human hypoxic A549 cells assessed as rhodamine release by measuring fold increase in fluorescence intensity in tumor at 2.5 mg/kg,iv and measured after 17 hrs by fluorescence imaging analysis relative to control; type: ADME, organism-based; details: in vivo
[14] = Prodrug conversion in human serum assessed as glutathione mediated drug degradation by measuring fluorescence production at 10 uM incubated for 30 mins by fluorescence spectroscopic analysis; type: ADME, cell-free; details: 0.5 h
[15] = Biodistribution in intestine of BALB/c mouse xenografted with human hypoxic A549 cells assessed as drug uptake at 2.5 mg/kg,iv and measured after 29 hrs by fluorescence imaging analysis; type: ADME, organism-based; details: in vivo
[16] = Prodrug conversion in PBS at 7.4 assessed as Escherichia coli nitroreductase mediated drug degradation by measuring norfloxacin metabolite formation at 10 uM incubated for 30 mins by HRMS analysis; type: ADME; details: isolated protein, pH 7.4, 0.5 h
[17] = Prodrug conversion in PBS at 7.4 assessed as Escherichia coli nitroreductase mediated drug degradation by measuring rhodamine metabolite formation at 10 uM incubated for 30 mins by HRMS analysis; type: ADME; details: isolated protein, pH 7.4, 0.5 h
[18] = Prodrug conversion in human serum assessed as arginine mediated drug degradation by measuring fluorescence production at 10 uM incubated for 30 mins by fluorescence spectroscopic analysis; type: ADME, cell-free; details: 0.5 h
[19] = Prodrug conversion in human serum assessed as tyrosinase mediated drug degradation by measuring fluorescence production at 10 uM incubated for 30 mins by fluorescence spectroscopic analysis; type: ADME, cell-free; details: 0.5 h
[20] = Prodrug conversion in BALB/c mouse xenografted with human hypoxic A549 cells assessed as rhodamine release by measuring increase in fluorescence intensity in tumor at 2.5 mg/kg,iv and measured after 2.5 hrs by fluorescence imaging analysis; type: ADME, organism-based; details: in vivo
[21] = Prodrug conversion in pH 4 to 8 buffer assessed as Escherichia coli nitroreductase mediated drug degradation by measuring fluorescence intensity at 10 uM incubated for 30 mins by fluorescence spectroscopic analysis; type: ADME; details: isolated protein, pH 4, 0.5 h
[22] = Prodrug conversion in human serum assessed as Fe3+ ion mediated drug degradation by measuring fluorescence production at 10 uM incubated for 30 mins by fluorescence spectroscopic analysis; type: ADME, cell-free; details: 0.5 h
Bacillus subtilis = assay: Antibacterial activity against Bacillus subtilis assessed as reduction in bacterial cell viability at 250 to 500 uM incubated for 24 hrs by CFU assay; type: functional, organism-based; details: dose 250-500 µM
[23] = Prodrug conversion in human serum assessed as trypsin mediated drug degradation by measuring fluorescence production at 10 uM incubated for 30 mins by fluorescence spectroscopic analysis; type: ADME, cell-free; details: 0.5 h
[24] = Prodrug conversion in human serum assessed as pepsin mediated drug degradation by measuring fluorescence production at 10 uM incubated for 30 mins by fluorescence spectroscopic analysis; type: ADME, cell-free; details: 0.5 h
[25] = Prodrug conversion in human serum assessed as Fe2+ ion mediated drug degradation by measuring fluorescence production at 10 uM incubated for 30 mins by fluorescence spectroscopic analysis; type: ADME, cell-free; details: 0.5 h
[26] = Prodrug conversion in PBS at 7.4 assessed as Escherichia coli nitroreductase mediated drug degradation by measuring increase in fluorescence emission at 545nm at 10 uM in presence of NADH as cofactor by fluorescence spectroscopic analysis; type: ADME; details: isolated protein, pH 7.4, 10 µM
[27] = Prodrug conversion in human serum assessed as NO3- ion mediated drug degradation by measuring fluorescence production at 10 uM incubated for 30 mins by fluorescence spectroscopic analysis; type: ADME, cell-free; details: 0.5 h
[28] = Prodrug conversion in human serum assessed as glutamic acid mediated drug degradation by measuring fluorescence production at 10 uM incubated for 30 mins by fluorescence spectroscopic analysis; type: ADME, cell-free; details: 0.5 h
[29] = Prodrug conversion in human serum assessed as HNO mediated drug degradation by measuring fluorescence production at 10 uM incubated for 30 mins by fluorescence spectroscopic analysis; type: ADME, cell-free; details: 0.5 h
[30] = Biodistribution in heart of BALB/c mouse xenografted with human hypoxic A549 cells assessed as drug uptake at 2.5 mg/kg,iv and measured after 29 hrs by fluorescence imaging analysis; type: ADME, organism-based; details: in vivo
[31] = Biodistribution in spleen of BALB/c mouse xenografted with human hypoxic A549 cells assessed as drug uptake at 2.5 mg/kg,iv and measured after 29 hrs by fluorescence imaging analysis; type: ADME, organism-based; details: in vivo
[32] = Prodrug conversion in human serum assessed as ascorbic acid mediated drug degradation by measuring fluorescence production at 10 uM incubated for 30 mins by fluorescence spectroscopic analysis; type: ADME, cell-free; details: 0.5 h
[33] = Prodrug conversion in PBS at pH 7.4 assessed as Escherichia coli nitroreductase mediated drug degradation by measuring change in fluorescence intensity at 545nm at 10 uM incubated for 20 mins by fluorescence spectroscopic analysis; type: ADME; details: isolated protein, pH 7.4, 20 min
[34] = Prodrug conversion in human serum assessed as cysteine mediated drug degradation by measuring fluorescence production at 10 uM incubated for 30 mins by fluorescence spectroscopic analysis; type: ADME, cell-free; details: 0.5 h
[35] = Prodrug conversion in human serum assessed as Cu2+ ion mediated drug degradation by measuring fluorescence production at 10 uM incubated for 30 mins by fluorescence spectroscopic analysis; type: ADME, cell-free; details: 0.5 h
[36] = Prodrug conversion in human serum assessed as FADH2 mediated drug degradation by measuring fluorescence production at 10 uM incubated for 30 mins by fluorescence spectroscopic analysis; type: ADME, cell-free; details: 0.5 h
[37] = Prodrug conversion in PBS at pH 7.4 assessed as Escherichia coli nitroreductase mediated drug degradation by measuring increase in maximum absorption at 522nm at 5 uM in presence of NADH as cofactor by UV-Vis spectroscopic analysis; type: ADME; details: isolated protein, pH 7.4, 5 µM
[38] = Prodrug conversion in Bacillus subtilis assessed as nitroreductase mediated drug degradation by measuring increase in fluorescence intensity at 10 uM by fluorescence analysis; type: ADME
[39] = Prodrug conversion in Escherichia coli assessed as nitroreductase mediated drug degradation by measuring fold increase in fluorescence intensity at 10 uM by fluorescence analysis relative to control; type: ADME
[40] = Biodistribution in tumor of BALB/c mouse xenografted with human hypoxic A549 cells assessed as drug uptake at 2.5 mg/kg,iv and measured after 29 hrs by fluorescence imaging analysis; type: ADME, organism-based, Neoplasm; details: in vivo
[41] = Prodrug conversion in human serum assessed as Zn2+ ion mediated drug degradation by measuring fluorescence production at 10 uM incubated for 30 mins by fluorescence spectroscopic analysis; type: ADME, cell-free; details: 0.5 h
[42] = Prodrug conversion in human serum assessed as hydroxyl radical mediated drug degradation by measuring fluorescence production at 10 uM incubated for 30 mins by fluorescence spectroscopic analysis; type: ADME, cell-free; details: 0.5 h
[43] = Biodistribution in kidney of BALB/c mouse xenografted with human hypoxic A549 cells assessed as drug uptake at 2.5 mg/kg,iv and measured after 29 hrs by fluorescence imaging analysis; type: ADME, organism-based; details: in vivo
[44] = Prodrug conversion in BALB/c mouse xenografted with human hypoxic A549 cells assessed as rhodamine release by measuring increase in fluorescence intensity in body at 2.5 mg/kg,iv and measured upto 29 hrs by fluorescence imaging analysis; type: ADME, organism-based; details: in vivo
[45] = Prodrug conversion in Escherichia coli assessed as nitroreductase mediated drug degradation by measuring increase in fluorescence intensity at 10 uM by fluorescence analysis relative to control; type: ADME

CCN(CC)c1ccc2c(c1)Oc1cc(OC(=O)OCc3cc(C)cc(COC(=O)c4cn(CC)c5cc(N6CCNCC6)c(F)cc5c4=O)c3OCc3ccc([N+](=O)[O-])cc3)ccc1C21OC(=O)c2ccccc21 (centres undefined)
Drug metabolism [1]: Metabolite_Notdetected | fold change (FC) [2]: 4 | Drug metabolism [3]: Metabolite_Notdetected | fold change (FC) [4]: 4.5 | Activity (Escherichia coli): Active | Drug uptake [5]: Active | Drug metabolism [6]: Metabolite_Notdetected | Drug metabolism [7]: Metabolite_Detected | Drug metabolism [8]: Metabolite_Notdetected | Drug metabolism [9]: Metabolite_Notdetected | Drug metabolism [10]: Metabolite_Notdetected | Drug uptake [11]: Not Active | Drug metabolism [12]: Metabolite_Notdetected | fold change (FC) [13]: 4.1 | Drug metabolism [14]: Metabolite_Notdetected | Drug uptake [15]: Active | Drug metabolism [16]: Metabolite_Detected | Drug metabolism [17]: Metabolite_Detected | Drug metabolism [18]: Metabolite_Notdetected | Drug metabolism [19]: Metabolite_Notdetected | Drug metabolism [20]: Metabolite_Detected | Drug metabolism [21]: Metabolite_Detected | Drug metabolism [22]: Metabolite_Notdetected | Activity (Bacillus subtilis): Dose-Dependent Effect | Drug metabolism [23]: Metabolite_Notdetected | Drug metabolism [24]: Metabolite_Notdetected | Drug metabolism [25]: Metabolite_Notdetected | Drug metabolism [26]: Metabolite_Detected | Drug metabolism [27]: Metabolite_Notdetected | Drug metabolism [28]: Metabolite_Notdetected | Drug metabolism [29]: Metabolite_Notdetected | Drug uptake [30]: Not Active | Drug uptake [31]: Not Active | Drug metabolism [32]: Metabolite_Notdetected | Drug metabolism [33]: Metabolite_Detected | Drug metabolism [34]: Metabolite_Notdetected | Drug metabolism [35]: Metabolite_Notdetected | Drug metabolism [36]: Metabolite_Notdetected | Drug metabolism [37]: Metabolite_Detected | Drug metabolism [38]: Metabolite_Detected | fold change (FC) [39]: 3.5 | Drug uptake [40]: Active | Drug metabolism [41]: Metabolite_Notdetected | Drug metabolism [42]: Metabolite_Notdetected | Drug uptake [43]: Not Active | Drug metabolism [44]: Metabolite_Detected

CCN(CC)c1ccc2c(c1)Oc1cc(OC(=O)OCc3cc(C)cc(COC(=O)c4cn(CC)c5cc(N6CCNCC6)c(F)cc5c4=O)c3OCc3ccccc3)ccc1C21OC(=O)c2ccccc21 (centres undefined)
Activity (Escherichia coli): Active | Drug metabolism [7]: Metabolite_Notdetected | Activity (Bacillus subtilis): Dose-Dependent Effect | Drug metabolism [45]: Metabolite_Notdetected | Drug metabolism [37]: Metabolite_Notdetected | Drug metabolism [38]: Metabolite_Notdetected | Drug uptake [40]: Not Active

CCn1cc(C(=O)O)c(=O)c2cc(F)c(N3CCNCC3)cc21
Activity (Escherichia coli): Active
